Data set [1] concerns AMD ARPE-19 transmitochondrial cybrid cells. The data set is described as follows: Mitochondrial membrane potential (JC-1) assay. The data set is classed as cell-based, human. The conditions noted are these: AMD cybrids; fenofibrate 50 μM; compared to untreated. The procedure: Mitochondrial membrane potential (JC-1) assay: The JC-1 assay uses a unique cationic dye i.e., 5,5′,6,6′-tetrachloro-1,1′,3,3′-tetraethylbenzimidazolylcarbocyanine iodide, to detect loss of mitochondrial membrane potential. JC-1 1× reagent was prepared by diluting 100× JC-1 reagent in assay buffer to 1:100 dilutions. […] 1× JC-1 reagent was added to cells and incubated for 15 min at 37° C. JC-1 reagent in the wells was then replaced with DPBS and fluorescence was measured as follows: Red fluorescence (Live cells): Excitation 550 nm and Emission 600 nm; Green fluorescence (Apoptotic cells): Excitation 485 nm and Emission 535 nm. Ratio of Red/Green was used for analysis. Lower ratio corresponded to higher apoptotic/dead cell number.

Data set [2] has the same test system. The data set is described as follows: MitoSOX assay (mitochondrial superoxide). It counts as cell-based, human. The conditions noted are these: AMD cybrids, fenofibrate 50 μM. The protocol: MitoSOX assay: The fluorogenic MitoSOX Red dye (Cat. #M36008, Invitrogen, Grand Island, N.Y., USA) is a live-cell permeant reagent that detects mitochondrial superoxide in cells. MitoSOX Red reagent oxidized by superoxide has red fluorescence that can be quantified. AMD cybrids were plated in 24-well tissue culture plates. Stock solution of 5 mM MitoSOX reagent was diluted with HBSS (Hank's balanced salt solution) buffer to obtain a 5 μM working solution. Cells were treated with 5 μM MitoSOX reagent and incubated for 10 min at 37° C. Cells were then washed with HBSS buffer, and fluorescence was measured at excitation/emission maxima of 510/580 nm.

Data set [3] shares this test system. Put plainly: CellLight Mitochondrial GFP staining and confocal microscopy. Particulars: fenofibrate 50 μM. It counts as cell-based, human. The protocol: CellLight Mitochondrial GFP staining and Confocal microscopy: Staining with CellLight Mitochondrial GFP probe (Cat. #C10600, Thermo Fisher Scientific, MA, USA) and confocal microscopy were performed as described previously (74). Cells were plated in 4-well tissue culture chamber slides, stained with CellLight mtGFP for 24 hr and incubated overnight at 37° C. The cells were washed with 1×TBS (Tris buffered saline), fixed in paraformaldehyde and mounted in DAPI. Confocal z-stack images were captured using the LSM-700 Confocal microscope (Zeiss, Thornwood, N.Y., USA). Images were quantified using ZEN 2 lite software (Zeiss).
RPE cells were transduced with CellLight reagent which is a GFP-E1 alpha pyruvate dehydrogenase leader peptide construct with a mammalian promoter. This fluorescent baculoviral fusion construct provides precise targeting to mitochondria.

The test system is the same in data set [4]. The data set is described as follows: Cell viability assay (MTT assay). The conditions noted are these: for cell viability, Mean ± SEM: AMD UN = 1. (In general: Formazan colour is commonly taken as a measure of viable cells.)
Method: All cybrids used in this study belonged to the ‘H’ mitochondrial DNA haplogroup. […] Stock solutions of 20 mM kaempferol and 10 mM telmisartan were prepared in DMSO and were diluted in culture media to obtain the following working concentrations: kaempferol at 5 μM, 10 μM, and 20 μM; telmisartan at 2.5 μM, 5 μM, and 10 μM. Cell viability assay (MTT assay): The numbers of viable cells were measured using the MTT (3-(4,5-dimethylthiazol-2-yl)-2,5-diphenyltetrazolium bromide) assay. […] Cells were incubated at 37° C. for 1 h, followed by addition of DMSO. Absorbance was measured at 570 nm and background absorbance measured at 630 nm. Normalized absorbance values were obtained by subtracting background absorbance from signal absorbance. The colorimetric signal obtained was proportional to the cell number.
The test system of data set [5] is PGC-1α. The data set is described as follows: qRT-PCR gene expression of PGC-1α in AMD RPE cybrid cells. It counts as cell-based, human. The conditions noted are these: 72 hr, AMD UN = 1. The procedure: (§1) Quantitative Real-Time PCR: RNA extraction, cDNA synthesis, and qRT-PCR analysis were performed as described previously (73). QuantiTect Primer Assays were used to study the expression of Caspase-3 gene (Cat. #QT00023947, Qiagen, Germantown, Md.), BAX gene (Cat. #QT00031192, Qiagen), HIF1α gene (Cat. #QT00083664, Qiagen), CFH gene (Cat. #QT00001624, Qiagen), and SOD2 gene (Cat. #QT01008693, Qiagen). KiCqStart® SYBR® green primers were used to examine the expression of PGC-1a, NRF-1, NRF-2, PPAR-α, PPAR-γ, VEGF, IL-18, and IFNB1 genes (Cat. #kspq12012, Sigma, St. Louis, Mo.). Specific housekeeper genes used were HPRT1 (Cat. #QT00059066, Qiagen), ALAS variant 1 (Cat. #QT01160467, Qiagen), and HMBS (Cat. #QT00014462). TaqMan gene expression master mix (Cat. #4369016, Life Technologies) and TaqMan gene expression assays were used to examine the expression of the MT-RNR2 gene (Assay ID: Hs02596860_s1, Life Technologies), for which GAPDH (Assay ID: Hs02786624_g1, Life Technologies) was used as a housekeeper gene. Data analysis was performed using ΔΔCt method which was calculated by subtracting ΔCt of the AMD group from ΔCt of the normal group. ΔCt was the difference between the Cts (threshold cycles) of the target gene and Cts of the housekeeper gene (reference gene). Fold change was calculated using the following formula: Fold change=2^ΔΔct.

The test system of data set [6] is SOD2. The data set is described as follows: qRT-PCR gene expression of SOD2 in AMD RPE cybrid cells. It counts as cell-based, human. The conditions noted are these: 72 hr, AMD UN = 1. The procedure:
as §1
For orientation: Quantitative PCR measures a nucleic acid by following its amplification.

Data set [7] relates to Caspase-3. The data set is described as follows: qRT-PCR gene expression of Caspase-3 in AMD RPE cybrid cells. The data set is classed as cell-based, human. Particulars: 72 hr; for Caspase-3 gene expression, Mean ± SEM: AMD UN = 1. The protocol: as §1
The test system of data set [8] is IL-18. Put plainly: qRT-PCR gene expression of IL-18 in AMD RPE cybrid cells. The data set is classed as cell-based, human. The conditions noted are these: 72 hr, AMD UN = 1. The protocol:
as §1

The test system of data set [9] is VEGF. The data set is described as follows: qRT-PCR gene expression of VEGF in AMD RPE cybrid cells. The data set is classed as cell-based, human. Particulars: 72 hr; for VEGF gene expression, Mean ± SEM: AMD UN = 1. The protocol:
as §1

In data set [10] the test system is esterase. Put plainly: fenofibrate to fenofibrate* conversion (first pass) and its block by esterase inhibitors. Particulars: co-administered with fenofibrate.
Where [11] appears, read: only kaempferol 20 μM, compared to untreated AMD cybrids.

Consider `CC(C)OC(=O)C(C)(C)Oc1ccc(C(=O)c2ccc(Cl)cc2)cc1` [fenofibrate], for which, in [1], the “increased mitochondrial membrane potential (JC-1 assay)” value came out at 116%. For the same molecule, the “mitochondrial superoxides, MitoSOX fluorescence (mean±SEM)” value in [2] (AMD UN = 1) turned out to be 0.77±0.04. Further, the “lower amount of mitochondrial superoxides (MitoSOX assay)” value in data set [2] (compared to untreated) was found to be 23%. Besides, the “mtGFP fluorescence intensity (mean±SEM)” value in [3] (AMD UN = 1) is recorded as 2.73±0.39. Further, the “increase in mtGFP fluorescence intensity” value in data set [3] (compared to untreated) amounted to 173%. In addition, the “cell viability, Mean ± SEM” value in [4] (48 hr, fenofibrate 50 μM only) is 1.33 ± 0.09; in data set [4] (72 hr, fenofibrate 50 μM only), 1.37 ± 0.07. The same molecule showed a higher cell viability in data set [4] (AMD cells, fenofibrate 50 μM, compared to untreated) of 51%.

Take `O=c1c(O)c(-c2ccc(O)cc2)oc2cc(O)cc(O)c12` [kaempferol, 3,5,7-trihydroxy-2-(4-hydroxyphenyl)-4H-1-benzopyran-4-one]: the “PGC-1a gene expression, Mean ± SEM” value in data set [5] (kaempferol 20 μM only) stood at 1.82 ± 0.57. The “SOD2 gene expression, Mean ± SEM” value in data set [6] (kaempferol 20 μM only) is reported as 0.88 ± 0.22. In data set [7] (kaempferol 20 μM only), the “Caspase-3 gene expression, Mean ± SEM” value is 0.74 ± 0.045. Also, the Caspase-3 downregulation in data set [7] (setting [11]) was 26%. In addition, the “IL-18 gene expression, Mean ± SEM” value in data set [8] (kaempferol 20 μM only) was 0.78 ± 0.13. Moreover, the “VEGF gene expression, Mean ± SEM” value in data set [9] (kaempferol 20 μM only) was found to be 0.42 ± 0.16. Besides, the VEGF downregulation in [9] (setting [11]) stood at 58%. In [10], the “block of conversion of fenofibrate to fenofibrate*” value was “largely block conversion to fenofibrate*”. Besides, the “cell viability, Mean ± SEM” value in [4] (48 hr, kaempferol 20 μM only) is 1.037 ± 0.1413; in [4] (72 hr, kaempferol 20 μM only) it was “did not show any difference in cell viability”; in [4] (72 hr, kaempferol 20 μM only, listed as kempferol) it was 1.259 ± 0.1060.

As for `CCCc1nc2c(C)cc(-c3nc4ccccc4n3C)cc2n1Cc1ccc(-c2ccccc2C(=O)O)cc1` [telmisartan], the “PGC-1a gene expression, Mean ± SEM” value in data set [5] (telmisartan 10 μM only) is on record as 1.40 ± 0.48. Moreover, the “SOD2 gene expression, Mean ± SEM” value in [6] (telmisartan 10 μM only) turned out to be 1.71 ± 0.46. For the same molecule, the “Caspase-3 gene expression, Mean ± SEM” value in data set [7] (telmisartan 10 μM only) turned out to be 0.86 ± 0.06. Moreover, the “IL-18 gene expression, Mean ± SEM” value in data set [8] (telmisartan 10 μM only) was 0.71 ± 0.25. For the same molecule, in data set [9] (telmisartan 10 μM only), the “VEGF gene expression, Mean ± SEM” value is 0.52 ± 0.19. Further, the “block of conversion of fenofibrate to fenofibrate*” value in data set [10] is on record as “largely block conversion to fenofibrate*”. Further, the “cell viability, Mean ± SEM” value in [4] (48 hr, telmisartan 10 μM only) came out at 0.95 ± 0.11; in data set [4] (72 hr, telmisartan 10 μM only), 0.99 ± 0.09.

Values taken from patent publication US20220211654A1, “MATERIALS AND METHODS FOR TREATING AGE-RELATED MACULAR DEGENERATION” (THE REGENTS OF THE UNIVERSITY OF CALIFORNIA, priority 2019, published 2022).
